In patent publication US5168102A, “Endocrine manipulation to improve body composition of poultry” (priority 1990, dated 1992):
“And” between values parts separate entries of the source, which are not always exact repeats. Identical values can stand only once.

Experiments:
[1] = Example 1: body composition (proximate analysis of carcass); format: in vivo, broiler cockerels (Ross X Arbor Acre strain)
Text: The purpose of this study was to determine the effect manipulating blood levels of thyroid hormones and/or growth hormone on growth performance and body composition of broiler chickens. […] Purified natural chicken growth hormone (ncGH) was obtained from the Research and Education Center, Harbor-UCLA Medical Center, Torrance, Calif. […] The premix (200 g) was then used to prepare 50 kg batches of each experimental diet according to the formula for broiler-finisher ration described in Table 1. The diet containing 0.5% PTU was prepared by mixing 250 g of PTU into 49.75 kg of the basal ration (Table 1).
Broiler cockerels (Ross X Arbor Acre strain) were raised to 3 weeks-of-age in a battery-brooder and then transferred to wire grow-out cages (4 birds/pen) held in two controlled-environment rooms (10 pens/room). Beginning at 3 weeks of age, eight birds (2 pens of 4 birds) were randomly assigned to each of 10 treatments. The chickens were provided the experimental diets and water ad libitum. […] For injection, the ncGH was reconstituted in sterile 0.025M sodium bicarbonate buffer (pH 9.8). The 10 treatments were administered for 21 days (i.e., from 3 to 6 weeks of age).
Measurement of body weight and feed consumption at weekly intervals allowed calculation of the average daily gain (ADG, g/bird/day), average daily feed consumption (ADFC, g/bird/day) and the feed-to-gain ratio (FIG, kg feed/kg gain) over the 21 day experimental period. Blood samples were taken each week (4, 5, and 6 weeks) just before (pre-injection) and 4 hours post-injection of ncGH. […] At the conclusion of the study, birds were killed and the carcasses frozen for proximate analysis. The frozen carcasses were ground in a meat grinder and aliquots of each ground carcass taken for determination of moisture, protein, fat and ash by established analytical procedures (Official Method of Analysis, Edition 13, W. Horwitz ed., Association of Official Analytical Chemist, Washington, D.C., 1980). Body composition data are presented as a percent of live weight at 6 weeks-of-age. Least squares regression analysis was used to test for significant differences (P<0.05) due treatment.

[2] = Example 3: muscle protein turnover (14C-L-tyrosine infusion); format: in vivo, broiler cockerels
Experimental: At week no. 7 (49 days-of-age), one-half of the birds (8 birds/treatment) were killed for measurement of the abdominal fat pad and liver weights. The muscles were removed, weighed, frozen in liquid N2 and stored at -20° C. until analyzed. At 51 days-of-age, groups of 4 birds per treatment were given a subcutaneous infusion of 4 μCi/Kg of 14C-L-tyrosine emulsified in sesame seed oil and immediately placed in metabolism cages. The expired CO2 was trapped in 15 ml of scrubbing solution (1:2 ethanolamine/methyl cellusolve) and the tubes were changed every 15 minutes for 90 minutes. At 90 minutes, the birds were removed from the metabolism cages and blood was obtained via cardiac puncture. Birds were then sacrificed by cervical dislocation and the muscles were removed, weighed, frozen in liquid N2 and stored at -20° C. until analyzed. Radioactivity in the samples containing trapped CO2 was counted for 10 minutes using a liquid scintillation spectrophotometer. At 54 days-of-age, groups of 4 birds per treatment were killed, the muscles were dissected, weighed, and frozen until analyzed.
The right breast muscle, i.e. BM (Pectoralis major) and right leg muscles, i.e. LM (gastrocnemius and peroneus longus) were dissected out from the birds, weighed and immediately frozen in liquid nitrogen and stored at -20° C. until analyzed for tyrosine content as specific radioactivity of tyrosine. All muscle tissues were analyzed for protein content; only tissues from isotope experiments were analyzed for tyrosine content as specific radioactivity of tyrosine.
FAR of breast muscle and leg muscles were estimated from regression of total muscle protein on age. Total muscle protein was determined by multiplying the muscle weight by protein content. Protein content was determined by the Biuret method. The slope obtained by linear regression was the absolute rate of protein accretion (g/d). The FAR (%/d) was calculated by dividing the absolute accretion rate by the average muscle protein at 51 days-of-age. The FSR (ks) was calculated according to the equation described by Garlick et al., Biochem. J. 136:935 (1973). Protein-bound tyrosine in muscle tissue was separated from free tyrosine according to the procedures of Laurent et al. Biochem. J. 176:419 (1978) with some modification. Approximately 1 g of muscle tissue was homogenized with 5 ml cold distilled water and washed with 15 ml of cold 5% trichloroacetic acid (TCA). The homogenate was then centrifuged for 15 min at 4000×g. The supernatant containing the free tyrosine was poured off and the TCA was extracted with 15 ml of diethyl ether. The supernatant was concentrated to dryness. The dried sample was dissolved in 5 ml of distilled water and stored at 4° C. until analyzed for tyrosine content and the specific radioactivity of tyrosine.
The pellet was extracted with 15 ml of hot 5% TCA, 15 ml of 3:1 ethanol/diethyl ether (v/v) and 20 ml of diethyl ether. The washed pellet was then placed in a 25×150 mm test tube with screw cap and hydrolyzed in 15 ml of 6N hydrochloric acid (HCl) for 16 hours at 125° C. The hydrolysate was concentrated to dryness. The dried sample was dissolved in 5 ml of distilled water and stored at 4° C. until analyzed for tyrosine content and specific radioactivity of tyrosine.
Tyrosine content in free tyrosine (supernatant) and the protein-bound fraction (hydrolysate) was analyzed according to the method of Udenfriend et al, J. Biol. Sci. 196:227 (1952).
The specific radioactivity of tyrosine in the protein-bound fraction (hydrolysate) and in the free tyrosine (supernatant) was analyzed using the method described by Schaefer et al, Can. J. Anim. Sci. 62:1223 (1982). One ml of the samples were added into 10 ml of aquasol and counted for 10 minutes in a liquid scintillation spectrophotometer.

[3] = Group 1, dietary, 6 weeks-of-age, N = 8

In the case of N[C@@H](Cc1cc(I)c(Oc2ccc(O)c(I)c2)c(I)c1)C(=O)O [T3, 3,3',5-triiodo-L-thyronine], the “Body composition: Ash” value [1, 3] is reported as 2.19 ± .05 % BW, the “Body composition: Fat” value [1, 3] is reported as 10.1 ± 1.2 % BW and the “Body composition: Protein” value [1, 3] is reported as 18.4 ± .22 % BW. The “Body composition: Water” value [1, 3] was 68.6 ± 1.0 % BW, the “effect on fat deposition” value ([1]; finishing phase) was “decreases fat deposition in chickens” and the “body fat content, reduction” value ([1]; vs CF group) was 17%. For the same molecule, the “effect on body protein, water and ash” value ([1]; vs CF group) was “body protein and water were slightly increased”, the “overall protein turnover rate of breast muscle” value ([2]; 0.25 ppm) was “did not differ from that of control birds” and the “protein accretion in breast and leg muscle, increase” value ([2]; 0.25 ppm) was 45-88%. The “FAR, Leg muscles” value ([2]; 0.25 ppm of feed) was 9.3 %/d, the “FAR, Pectoralis major (breast muscle)” value ([2]; 0.25 ppm of feed) was 4.9 %/d and the “FRD (fractional degradation rate), Leg muscles” value ([2]; 0.25 ppm of feed) was 13.6 %/d. For the same molecule, the “FRD (fractional degradation rate), Pectoralis major” value ([2]; 0.25 ppm of feed) was 12.3 %/d, the “FSR, Leg muscles” value ([2]; 0.25 ppm of feed) was 22.0 ± 2.1 %/d and the “FSR, Pectoralis major” value ([2]; 0.25 ppm of feed) was 17.2 ± 1.3 %/d. For the same molecule, the “FAR of leg muscle, increase” value ([2]; 0.25 ppm, vs control group) was 45%, the “FAR of pectoralis major (breast muscle), increase” value ([2]; 0.25 ppm, vs control group) was 88% and the “effect on protein synthesis rate in breast muscle” value ([2]; 0.25 to 1 ppm) was “only a slight effect upon protein synthesis rate in breast muscle”. For the same molecule, the “FAR, Leg muscles” value ([2]; 1.0 ppm of feed) was -2.0 %/d, the “FAR, Pectoralis major (breast muscle)” value ([2]; 1.0 ppm of feed) was -4.5 %/d and the “FRD (fractional degradation rate), Leg muscles” value ([2]; 1.0 ppm of feed) was 24.1 %/d. The “FRD (fractional degradation rate), Pectoralis major” value ([2]; 1.0 ppm of feed) was 22.7 %/d, the “FSR, Leg muscles” value ([2]; 1.0 ppm of feed) was 22.1 ± 1.9 %/d and the “FSR, Pectoralis major” value ([2]; 1.0 ppm of feed) was 18.2 ± 1.7 %/d. The “fractional degradation rate of breast muscle, increase” value ([2]; 4 ppm) was 116%, the “FSR of protein in breast muscle, increase” value ([2]; 4.0 ppm (p<0.05)) was 55.7% and 56% and the “FAR, Leg muscles” value ([2]; 4.0 ppm of feed) was 5.0 %/d. The “FAR, Pectoralis major (breast muscle)” value ([2]; 4.0 ppm of feed) was -3.8 %/d, the “FRD (fractional degradation rate), Leg muscles” value ([2]; 4.0 ppm of feed) was 18.4 %/d and the “FRD (fractional degradation rate), Pectoralis major” value ([2]; 4.0 ppm of feed) was 28.1 %/d. The “FSR, Leg muscles” value ([2]; 4.0 ppm of feed) was 23.4 ± 0.8 %/d, the “FSR, Pectoralis major” value ([2]; 4.0 ppm of feed) was 24.3 ± 1.4 %/d and the “accretion of certain muscle protein (particularly breast muscle)” value ([2]; plasma thyroid hormone bioactivity 360-1200% of normal) was “decreased”.
